Values joined by “and” are separate entries in the source; they are usually repeats but may differ in a detail not shown here. Equal entries are not always repeated. Records with an inconclusive call do not appear.
Tested on: HT29 intrarenal xenograft, nude mice, tumor weight change
Experiment: NCI In Vivo Anticancer Drug Screen. Data for tumor model HT29;CX-1 Human Adenocarcinoma (MER+) (intrarenal inoculation) in NU/NU BALB/C (nude) mice
Conditions: endpoint: mean tumor weight change, higher = larger tumour
Method: The antitumor activity of compounds was measured in mice bearing transplantable tumors. Survival or tumor size were measured and the results are expressed as the measurement made in the treated group (T) divided by the measurement made in the vehicle treated control group (C). The tumor model used in this assay is HT29;CX-1 Human Adenocarcinoma (MER+) (intrarenal inoculation) in NU/NU BALB/C (nude) mice

[1] = dose: 3.0 mg/kg/injection, schedule: Q04DX004 (sc), vehicle: saline with Tween-80
[2] = dose: 6.0 mg/kg/injection, schedule: Q04DX004 (sc), vehicle: saline with Tween-80
[3] = dose: 150.0 mg/kg/injection, schedule: Q04DX004 (sc), vehicle: saline with Tween-80
[4] = dose: 300.0 mg/kg/injection, schedule: Q04DX004 (sc), vehicle: saline with Tween-80
[5] = dose: 600.0 mg/kg/injection, schedule: Q04DX004 (sc), vehicle: saline with Tween-80
[6] = dose: 1200.0 mg/kg/injection, schedule: Q04DX004 (sc), vehicle: saline with Tween-80
[7] = dose: 2400.0 mg/kg/injection, schedule: Q04DX004 (sc), vehicle: saline with Tween-80
[8] = dose: 150.0 mg/kg/injection, schedule: Q04DX004 (sc), vehicle: Klucel (hydroxypropylcellulose) (HPC)
[9] = dose: 300.0 mg/kg/injection, schedule: Q04DX004 (sc), vehicle: Klucel (hydroxypropylcellulose) (HPC)
[10] = dose: 600.0 mg/kg/injection, schedule: Q04DX004 (sc), vehicle: Klucel (hydroxypropylcellulose) (HPC)
[11] = dose: 1200.0 mg/kg/injection, schedule: Q04DX004 (sc), vehicle: Klucel (hydroxypropylcellulose) (HPC)
[12] = dose: 150.0 mg/kg/injection, schedule: Q04DX004 (sc), vehicle: saline

SMILES: O=c1c(O)c(-c2cc(O)c(O)c(O)c2)oc2cc(O)cc(O)c12
- T/C (dose: 1.5 mg/kg/injection, schedule: Q04DX004 (sc), vehicle: saline with Tween-80): 105 % of control
- T/C [1]: 114 % of control
- T/C [2]: 107 % of control
- T/C (dose: 12.0 mg/kg/injection, schedule: Q04DX004 (sc), vehicle: saline with Tween-80): 106 % of control
- T/C (dose: 50.0 mg/kg/injection, schedule: Q04DX004 (sc), vehicle: saline with Tween-80): 63 % of control
- T/C (dose: 100.0 mg/kg/injection, schedule: Q04DX004 (sc), vehicle: saline with Tween-80): 73 % of control
- T/C (dose: 200.0 mg/kg/injection, schedule: Q04DX004 (sc), vehicle: saline with Tween-80): 77 % of control
- T/C (dose: 400.0 mg/kg/injection, schedule: Q04DX004 (sc), vehicle: saline with Tween-80): 103 % of control

SMILES: CCOC(=O)C1(c2ccccc2)C(=O)Oc2ccccc21 (stereo not given)
- T/C [3]: 83 % of control
- T/C [4]: 98 % of control
- T/C [5]: 117 % of control
- T/C [6]: 80 % of control

SMILES: C=C(NC(=O)C(=C)NC(=O)c1csc(C2=NC3c4csc(n4)C4NC(=O)c5csc(n5)C(C(C)(O)C(C)O)NC(=O)C5CSC(=N5)/C(=C/C)NC(=O)C(C(C)O)NC(=O)c5csc(n5)C3(CC2)NC(=O)C(C)NC(=O)C(=C)NC(=O)C(C)NC(=O)C(C(C)CC)NC2C=Cc3c(C(C)O)cc(nc3C2O)C(=O)OC4C)n1)C(N)=O (stereo not given)
- T/C (dose: 400.0 mg/kg/injection, schedule: Q01DX010 (sc), vehicle: Klucel (hydroxypropylcellulose) (HPC)): 81 % of control
- T/C (dose: 800.0 mg/kg/injection, schedule: Q01DX010 (sc), vehicle: Klucel (hydroxypropylcellulose) (HPC)): 96 % of control
- T/C (dose: 1600.0 mg/kg/injection, schedule: Q01DX010 (sc), vehicle: Klucel (hydroxypropylcellulose) (HPC)): 44 % of control
- T/C (dose: 2400.0 mg/kg/injection, schedule: Q01DX010 (sc), vehicle: Klucel (hydroxypropylcellulose) (HPC)): 71 % of control

SMILES: O=C(c1cccnc1)c1cc(-c2ccccn2)c(=O)n2ccccc12
- T/C [4]: 87 % of control
- T/C [5]: 21 % of control
- T/C [6]: 77 % of control
- T/C [7]: 83 % of control

SMILES: CC1=C/C(O)CC(=O)Cc2nc(co2)C(=O)N2CCC=C2C(=O)OC(C(C)C)C(C)/C=C\C(=O)NC/C=C\1 (stereo not given)
- T/C [8]: 66 % of control
- T/C [9]: 92 % of control
- T/C [10]: 54 % of control
- T/C [11]: 85 % of control

SMILES: C[CH2][Sn]([CH2]C)([O]S(C)(=O)=O)[O]S(C)(=O)=O
- T/C (dose: 6.25 mg/kg/injection, schedule: Q04DX004 (sc), vehicle: saline with Tween-80): 169 % of control
- T/C (dose: 12.5 mg/kg/injection, schedule: Q04DX004 (sc), vehicle: saline with Tween-80): 107 % of control

SMILES: CN(N=O)C(=O)N[C@@H](C=O)[C@@H](O)[C@H](O)[C@H](O)CO
- T/C [12]: 111 % of control
- T/C (dose: 300.0 mg/kg/injection, schedule: Q04DX004 (sc), vehicle: saline): 38 % of control

SMILES: OC1(CSc2ccccc2)CCCCC1
- T/C [6]: 65 % of control
- T/C [7]: 68 % of control

SMILES: N=c1c(C(=O)OCc2ccccc2)ncc(CCl)n1O
- T/C [3]: 67 % of control
- T/C [4]: 58 % of control
- T/C [5]: 49 % of control
- T/C [6]: 75 % of control

SMILES: O=Cc1ccc(C=O)c(Cl)c1
- T/C [8]: 92 % of control
- T/C [9]: 81 % of control
- T/C [10]: 109 % of control
- T/C [11]: 114 % of control

SMILES: COc1cccc2c1C(=O)c1c(O)c3c(c(O)c1C2=O)C[C@@](O)(C(=O)CO)C[C@@H]3OC1CC(N2CCOCC2C#N)C(O)C(C)O1 (stereo not given in full)
- T/C (dose: 15.0 micrograms/kg/injection, schedule: Q04DX004 (ip), vehicle: saline): 114 % of control
- T/C (dose: 30.0 micrograms/kg/injection, schedule: Q04DX004 (ip), vehicle: saline): 110 % of control
- T/C (dose: 60.0 micrograms/kg/injection, schedule: Q04DX004 (ip), vehicle: saline): 78 % of control

SMILES: CN(C)N=Nc1ccc(S(N)(=O)=O)cc1
- T/C (dose: 100.0 mg/kg/injection, schedule: Q01DX010 (sc), vehicle: Klucel (hydroxypropylcellulose) (HPC)): 81 % of control
- T/C (dose: 200.0 mg/kg/injection, schedule: Q01DX010 (sc), vehicle: Klucel (hydroxypropylcellulose) (HPC)): 104 % of control

SMILES: COc1cccc2c1C(=O)c1c(O)c3c(c(O)c1C2=O)CC(O)(C(=O)CO)CC3OC1CC(N)C(O)C(C)O1 (stereo not given)
- T/C (dose: 37.5 mg/kg/injection, schedule: Q04DX004 (sc), vehicle: water): 32 % of control and 53 % of control
- T/C (dose: 75.0 mg/kg/injection, schedule: Q04DX004 (sc), vehicle: water): 111 % of control and 117 % of control
- T/C (dose: 300.0 mg/kg/injection, schedule: Q04DX004 (sc), vehicle: water): 55 % of control and 68 % of control

SMILES: CC[C@](O)(C(=O)O)c1cc2n(c(=O)c1CO)Cc1cc3ccccc3nc1-2
- T/C (dose: 31.25 mg/kg/injection, schedule: Q04DX004 (sc), vehicle: saline): 39 % of control

SMILES: CCC1=C[C@H]2CN(CCc3c([nH]c4ccccc34)[C@@](C(=O)OC)(c3cc4c(cc3OC)N(C)[C@H]3[C@@](O)(C(=O)OC)[C@H](OC(C)=O)[C@]5(CC)C=CCN6CC[C@]43[C@@H]65)C2)C1
- T/C (dose: 0.38 mg/kg/injection, schedule: Q04DX004 (sc), vehicle: water): 116 % of control
- T/C (dose: 0.75 mg/kg/injection, schedule: Q04DX004 (sc), vehicle: water): 159 % of control
- T/C (dose: 1.5 mg/kg/injection, schedule: Q04DX004 (sc), vehicle: water): 118 % of control
- T/C (dose: 3.0 mg/kg/injection, schedule: Q04DX004 (sc), vehicle: water): 40 % of control
- T/C (dose: 6.0 mg/kg/injection, schedule: Q04DX004 (sc), vehicle: water): 100 % of control
- T/C (dose: 12.0 mg/kg/injection, schedule: Q04DX004 (sc), vehicle: water): 66 % of control

SMILES: CN(C)P(=O)(Oc1ccccc1)N(C)C
- T/C [6]: 78 % of control

SMILES: O=[N+]([O-])c1ccc(N2CCOCC2)c2c1no[n+]2[O-]
- T/C (dose: 75.0 mg/kg/injection, schedule: Q04DX004 (sc), vehicle: saline with Tween-80): 88 % of control
- T/C [3]: 116 % of control
- T/C [4]: 156 % of control
- T/C [5]: 83 % of control

SMILES: CC[C@@]1(O)C(=O)OCc2c1cc1n(c2=O)Cc2cc3ccccc3nc2-1
- T/C (dose: 0.75 mg/kg/injection, schedule: Q04DX004 (sc), vehicle: saline with Tween-80): 75 % of control
- T/C [1]: 49 % of control
- T/C [2]: 48 % of control
- T/C (dose: 32.0 mg/kg/injection, schedule: Q04DX004 (sc), vehicle: saline with Tween-80): 8 % of control

SMILES: CC(=O)Oc1[nH]c(=O)c2cccc3c2c1CCC3
- T/C [3]: 207 % of control
- T/C [4]: 105 % of control

SMILES: CN(C)c1nc(N(C)C)nc(N(C)C)n1
- T/C (dose: 12.5 mg/kg/injection, schedule: Q01DX010 (sc), vehicle: saline with Tween-80): 99 % of control
- T/C (dose: 50.0 mg/kg/injection, schedule: Q01DX010 (sc), vehicle: saline with Tween-80): 79 % of control
- T/C (dose: 100.0 mg/kg/injection, schedule: Q01DX010 (sc), vehicle: saline with Tween-80): 72 % of control

SMILES: Cc1cc(N)c2ccccc2[n+]1CCCCCCCCCC[n+]1c(C)cc(N)c2ccccc21
- T/C (dose: 0.38 mg/kg/injection, schedule: Q01DX010 (ip), vehicle: dextrose): 101 % of control
- T/C (dose: 0.75 mg/kg/injection, schedule: Q01DX010 (ip), vehicle: dextrose): 101 % of control
- T/C (dose: 1.5 mg/kg/injection, schedule: Q01DX010 (ip), vehicle: dextrose): 81 % of control

SMILES: CCCCCCCCCCCCCCCCCCOCC(COP(=O)([O-])OCC[N+](C)(C)C)OC (stereo not given)
- T/C [12]: 121 % of control

SMILES: N[C@@H](Cc1ccc(N(CCCl)CCCl)cc1)C(=O)O
- T/C (dose: 1.0 mg/kg/injection, schedule: Q01DX010 (sc), vehicle: saline): 28 % of control
- T/C (dose: 2.0 mg/kg/injection, schedule: Q01DX010 (sc), vehicle: saline): 3 % of control

SMILES: NC(Cc1ccc(N(CCCl)CCCl)cc1)C(=O)O (stereo not given)
- T/C (dose: 5.0 mg/kg/injection, schedule: Q04DX004 (sc), vehicle: saline): 46 % of control
- T/C (dose: 10.0 mg/kg/injection, schedule: Q04DX004 (sc), vehicle: saline): 106 % of control
- T/C (dose: 20.0 mg/kg/injection, schedule: Q04DX004 (sc), vehicle: saline): 47 % of control

SMILES: NC(=O)CCC(N)C(=O)O (stereo not given)
- T/C (dose: 75.0 mg/kg/injection, schedule: Q04DX004 (ip), vehicle: suspension in saline): 101 % of control
- T/C (dose: 150.0 mg/kg/injection, schedule: Q04DX004 (ip), vehicle: suspension in saline): 70 % of control
- T/C (dose: 600.0 mg/kg/injection, schedule: Q04DX004 (ip), vehicle: suspension in saline): 95 % of control
- T/C (dose: 1200.0 mg/kg/injection, schedule: Q04DX004 (ip), vehicle: suspension in saline): 107 % of control

From PubChem BioAssay AID208 (DTP/NCI, 2004)
